Test results: paper PMC10525570, “Antiviral Activity of Anthranilamide Peptidomimetics against Herpes Simplex Virus 1 and a Coronavirus” (Antibiotics, 2023)
Entries after “also recorded” stand apart in the source; their conditions may differ. Read-outs that look alike come from different tables or passages of the source.

Legend:
[1] = test system: HSV-1; assay: Virus pre-treatment (direct virus inactivation) plaque assay, HSV-1; type: cell-based, herpes simplex virus 1
Method: (§1) The peptidomimetics were evaluated for their antiviral activity using three different assays: virus pre-treatment, cell pre-treatment, and post-treatment assays, with the main distinction being the timing of the compound addition. Cells were seeded in 24-well plates at a density of 2.5 × 10^5 cells/well and incubated for 48 h at 37 °C. In all assays, the compounds were added to DMEM medium in the absence of fetal bovine serum (FBS). All experiments were performed in duplicate with two independent replicates. The inhibitory effect on viral infectivity was determined by comparing the number of plaques in wells treated with the test compounds (peptidomimetics) to the plaques observed in the control wells (cells infected with the virus without test compounds).
(§2) Virus pre-treatment assay: In this assay, the test compounds were added to the virus (1 × 10^3 PFU/mL) and incubated for 3 h at 37 °C. After incubation, each mixture (virus/peptide) was diluted in DMEM medium containing 10% FBS to neutralize the peptides or mimics. The dilutions were then added to the cell monolayers for 1 h, followed by the addition of an agar overlay containing 1% agar. The cells were further incubated for 72 h, after which they were fixed, stained, and the number of plaques was counted.

[2] = test system: MHV-1; assay: Virus pre-treatment (direct virus inactivation) plaque assay, MHV-1; type: cell-based, Murine hepatitis virus 1; details: for Plaque formation, MHV-1: quadruplicate
Method: as §1, §2

[3] = MTT cytotoxicity assay, A9 cells; type: cell-based; details: mouse, read-out: MHV-1 (A9 Cells) CC50
Method: (§3) The MTT assay was used to assess the cytotoxicity of compounds against the viral host (A9 and Vero) cells. This assay relies on the reduction of the yellow MTT compound to a dark blue formazan product by viable and metabolically active cells. Viral host cells were cultured in 96-well plates and incubated at 37 °C in a 5% CO2 atmosphere, treated with various concentrations of the test compounds together with further incubation for 24 h. After incubation, 100 μL of a 5 mg/mL MTT solution was added to each well and incubated for 2–4 h at 37 °C. The supernatant was then discarded, and 100 μL of 100% DMSO was added to dissolve the formazan salts with vigorous agitation for 10 min at room temperature. The absorbance at 540 nm was measured using a spectrophotometer. Cytotoxicity was determined by comparing the absorbance values in the test and control wells expressed as a percentage. A total of 100 μL DMSO was used for negative control (ctr−), while 100 μL of culture medium represented the positive control (ctr+). All experiments were repeated three times, and the mean values with standard deviations are reported. Nonlinear regression analysis was performed using GraphPad Prism software to determine the CC50 (concentration at which 50% of cells are killed).

[4] = MTT cytotoxicity assay, Vero cells; type: cell-based; details: African green monkey, read-out: HSV-1 (Vero Cells) CC50
Method: as §3

[5] = test system: MHV-1; assay: Post-viral infection plaque assay, MHV-1 on A9 cells; type: cell-based, Murine hepatitis virus 1; details: compound added 3 h post-infection, 15.625, 7.5, 3.75 µM
Method: (§4) In order to determine if compounds 11 and 14 were able to inhibit aspects of viral infection after the initial binding stage to host mammalian cells, the same concentrations of the compounds were administered to the cells after a 3-h interval post-infection.
as §1
(§5) Post-viral infection assay: The cells were first incubated with viruses (1 × 10^3 PFU/mL) for 3 h at 37 °C to ensure complete cellular entry. Following that, the test compounds were added and incubated for 24 h at 37 °C. […] The cells were then fixed, stained, and the number of plaques was determined.

[6] = test system: HSV-1; assay: Post-viral infection plaque assay, HSV-1 on Vero cells; type: cell-based, herpes simplex virus 1; details: compound added 3 h post-infection, 15.625, 7.5, 3.75 µM
Method: as §4, §1, §5

[7] = test system: MHV-1; assay: Cell pre-treatment plaque assay, MHV-1 on A9 cells; type: cell-based, Murine hepatitis virus 1; details: A9 cells preincubated 24 h with 15.625, 7.5, 3.75 µM before infection
Method: (§6) In order to explore additional potential mechanisms, the ability of compounds 11 and 14 to reduce the ability of the two viruses to bind to their respective mammalian host cells was examined. Three concentrations (15.625 µM, 7.5 µM, and 3.75 µM) of compounds 11 and 14, all below their cytotoxic thresholds, were allowed to interact with A9 and Vero cells for 24-h before virus infection. The impact of these interactions was assessed using a plaque assay to determine inhibitory effects.
as §1, with “All experiments were performed in duplicate with two independent replicates.” left out
(§7) Cell pre-treatment assay: The cells were treated with the test compounds and incubated for 24 h at 37 °C. […] The cells were then fixed, stained, and the number of plaques was determined.

[8] = test system: MHV-1; assay: Transmission electron microscopy of treated MHV-1; set-up: species or system Murine hepatitis virus 1; details: virus treated at 37 °C for 2 h
Method: (§8) The viruses were treated with compound 11 for MHV-1 and 14 for HSV-1, both at 37 °C for 2 h. Subsequently, 10 µL of the treated mixture was placed on a glow-discharged carbon-coated 200 mesh copper grid and allowed to evaporate for 5 min. The sample was then stained with 1% phosphotungstic acid (pH 6.5) for 30 s to improve the contrast. After air-drying, the grids were examined using an FEI Tecnai G2 20 TEM machine.

[9] = test system: HSV-1; assay: Cell pre-treatment plaque assay, HSV-1 on Vero cells; type: cell-based, herpes simplex virus 1; details: Vero cells preincubated 24 h with 15.625, 7.5, 3.75 µM before infection
Method: as §6
as §1, with “All experiments were performed in duplicate with two independent replicates.” left out
as §7

[10] = test system: HSV-1; assay: Transmission electron microscopy of treated HSV-1; set-up: species or system herpes simplex virus 1; details: virus treated at 37 °C for 2 h
Method: as §8

[11] = Human alphaherpesvirus 1, virus pre-treatment 3 h at 37 °C, plaque assay, read-out: HSV-1 IC50
[12] = Murine coronavirus, virus pre-treatment 3 h at 37 °C, plaque assay, read-out: MHV-1 IC50
[13] = Human alphaherpesvirus 1, Table 2, Vero cells, read-out: HSV-1 (Vero Cells) IC50
[14] = Murine coronavirus, Table 2, A9 cells, read-out: MHV-1 (A9 Cells) IC50

## N=C(N)NCCNC(=O)C(Cc1c[nH]c2ccccc12)NC(=O)c1ccccc1NC(=O)c1ccc2ccccc2c1 (stereo not shown) [Compound 6]
[1]; [11]
  IC50: > 62.5 µM
[2]; [12]
  IC50: > 62.5 µM

## COc1ccc(NC(=O)c2ccc3ccccc3c2)c(C(=O)NC(Cc2c[nH]c3ccccc23)C(=O)NCCNC(=N)N)c1 (stereo not shown) [Compound 10]
[1]; [11]
  IC50: > 62.5 µM
[2]; [12]
  IC50: > 62.5 µM

## COc1ccc(NC(=O)c2ccc3ccccc3c2)c(C(=O)NC(Cc2c[nH]c3ccccc23)C(=O)NCCN)c1 (stereo not shown) [Compound 5]
[1]; [11]
  IC50: > 62.5 µM
[2]; [12]
  IC50: > 62.5 µM

## NCCCCC(N)C(=O)NCCNC(=O)C(Cc1c[nH]c2ccccc12)NC(=O)c1cc(Br)ccc1NC(=O)c1ccc2ccccc2c1 (stereo not shown) [Compound 15]
[1]; [13]
  IC50: > 62.5 µM
[1]; [11]
  IC50: > 62.5 µM
[3]
  CC50 at 24 h: 62.7 µM
[2]; [14]
  IC50: 11.1 µM
[2]; [12]
  IC50: 11.1 µM

## N=C(N)NCCNC(=O)C(Cc1c[nH]c2ccccc12)NC(=O)c1cc(Br)ccc1NC(=O)c1ccc2ccccc2c1 (stereo not shown) [Compound 7]
[1]; [13]
  IC50: 32.8 µM
[1]; [11]
  IC50: 32.7 µM
[4]
  CC50 at 24 h: 127 µM
[2]; [14]
  IC50: > 62.5 µM
[2]; [12]
  IC50: > 62.5 µM

## NCCNC(=O)C(Cc1c[nH]c2ccccc12)NC(=O)c1cc(F)ccc1NC(=O)c1ccc2ccccc2c1 (stereo not shown) [Compound 3]
[1]; [11]
  IC50: > 62.5 µM
[2]; [12]
  IC50: > 62.5 µM

## NCCNC(=O)C(Cc1c[nH]c2ccccc12)NC(=O)c1cc(-c2ccc3ccccc3c2)ccc1N (stereo not shown) [Compound 11]
[5]
  Antiviral activity against MHV-1, post-infection treatment: no noticeable antiviral activity; also recorded: Neither of the compounds was able to affect viral replication
[6]
  Antiviral activity against HSV-1, post-infection treatment: no noticeable antiviral activity; also recorded: Neither of the compounds was able to affect viral replication
[1]; Human alphaherpesvirus 1, read-out: HSV-1 IC50
  IC50: 34.9 µM
[1]; [13]
  IC50: 34.9 µM
[3]
  CC50 at 24 h: 20.5 µM
[4]
  CC50 at 24 h: 16.7 µM
[7]
  Inhibition of MHV-1 infection, cell pre-treatment: none of the compounds could inhibit virus infection; also recorded: Neither of the compounds was able to affect viral replication
[8]
  Effect on MHV-1 viral envelope (TEM): disrupted viral envelope; also recorded: complete disruption of the viral envelope
[9]
  Inhibition of HSV-1 infection, cell pre-treatment: none of the compounds could inhibit virus infection; also recorded: Neither of the compounds was able to affect viral replication
[2]; MHV-1 treated with 31.25 µM
  Plaque formation, MHV-1: complete inhibition of plaque formation
[2]; MHV-1 treated with 62.5 µM
  Plaque formation, MHV-1: complete inhibition of plaque formation
[2]; Murine coronavirus, read-out: MHV-1 IC50
  IC50: 2.38 µM
[2]; [14]
  IC50: 2.18 µM
[2]; Murine coronavirus, at 2.18 µM
  inhibition at 2.18 µM: > 50%

## COc1ncc(-c2ccc(N)c(C(=O)NC(Cc3c[nH]c4ccccc34)C(=O)NCCN)c2)c(OC)n1 (stereo not shown) [Compound 13]
[1]; [11]
  IC50: > 62.5 µM
[2]; [12]
  IC50: > 62.5 µM

## NCCNC(=O)C(Cc1c[nH]c2ccccc12)NC(=O)c1cc(Cl)ccc1NC(=O)c1ccc2ccccc2c1 (stereo not shown) [Compound 4]
[1]; [11]
  IC50: > 62.5 µM
[2]; [12]
  IC50: > 62.5 µM

## NCCNC(=O)C(Cc1c[nH]c2ccccc12)NC(=O)c1cc(-c2ccc(-c3ccccc3)cc2)ccc1N (stereo not shown) [Compound 12]
[1]; [11]
  IC50: > 62.5 µM
[2]; [12]
  IC50: > 62.5 µM

## N=C(N)NCCNC(=O)C(Cc1c[nH]c2ccccc12)NC(=O)c1cc(Cl)ccc1NC(=O)c1ccc2ccccc2c1 (stereo not shown) [Compound 9]
[1]; [13]
  IC50: 14.9 µM
[1]; [11]
  IC50: 14.8 µM
[4]
  CC50 at 24 h: 45 µM
[2]; [14]
  IC50: > 62.5 µM
[2]; [12]
  IC50: > 62.5 µM

## NCCCCC(N)C(=O)NCCNC(=O)C(Cc1c[nH]c2ccccc12)NC(=O)c1cc(Br)ccc1NC(=O)c1ccc(-c2ccccc2)cc1 (stereo not shown) [Compound 16]
[1]; [13]
  IC50: > 62.5 µM
[1]; [11]
  IC50: > 62.5 µM
[3]
  CC50 at 24 h: 81.6 µM
[2]; [14]
  IC50: 22.6 µM
[2]; [12]
  IC50: 22.5 µM

## N=C(N)NCCNC(=O)C(Cc1c[nH]c2ccccc12)NC(=O)c1cc(F)ccc1NC(=O)c1ccc2ccccc2c1 (stereo not shown) [Compound 8]
[1]; [11]
  IC50: > 62.5 µM
[2]; [12]
  IC50: > 62.5 µM

## NCCNC(=O)C(Cc1c[nH]c2ccccc12)NC(=O)c1cc(Br)ccc1NC(=O)c1ccc2ccccc2c1 (stereo not shown) [Compound 2]
[1]; [11]
  IC50: > 62.5 µM
[2]; [12]
  IC50: > 62.5 µM

## NCCNC(=O)C(Cc1c[nH]c2ccccc12)NC(=O)c1cc(-c2ccccc2-c2ccccc2)ccc1N (stereo not shown) [Compound 14]
[5]
  Antiviral activity against MHV-1, post-infection treatment: no noticeable antiviral activity; also recorded: Neither of the compounds was able to affect viral replication
[10]
  Effect on HSV-1 viral envelope (TEM): partial disruption of the HSV-1 envelope; also recorded: partial destruction of the HSV-1 envelope
[6]
  Antiviral activity against HSV-1, post-infection treatment: no noticeable antiviral activity; also recorded: Neither of the compounds was able to affect viral replication
[1]; HSV-1 treated with 31.25 µM
  Plaque formation, HSV-1: complete inhibition of plaque formation
[1]; HSV-1 treated with 62.5 µM, four replicates
  Plaque formation, HSV-1: complete inhibition of plaque formation
[1]; [13]
  IC50: 13 µM
[1]; Human alphaherpesvirus 1, at 13 µM
  inhibition at 13 µM: > 50%
[1]; [11]
  IC50: 13 µM
[3]
  CC50 at 24 h: 10.2 µM
[4]
  CC50 at 24 h: 15.2 µM
[7]
  Inhibition of MHV-1 infection, cell pre-treatment: none of the compounds could inhibit virus infection; also recorded: Neither of the compounds was able to affect viral replication
[9]
  Inhibition of HSV-1 infection, cell pre-treatment: none of the compounds could inhibit virus infection; also recorded: Neither of the compounds was able to affect viral replication
[2]; [14]
  IC50: 6.3 µM
[2]; [12]
  IC50: 6.3 µM

## NCCCCC(N)C(=O)NCCNC(=O)C(Cc1c[nH]c2ccccc12)NC(=O)c1cc(Br)ccc1NC(=O)c1cccc(-c2ccccc2)c1 (stereo not shown) [Compound 17]
[1]; [13]
  IC50: > 62.5 µM
[1]; [11]
  IC50: > 62.5 µM
[3]
  CC50 at 24 h: 114 µM
[2]; [14]
  IC50: 11.8 µM
[2]; [12]
  IC50: 11.8 µM

## NCCNC(=O)C(Cc1c[nH]c2ccccc12)NC(=O)c1ccccc1NC(=O)c1ccc2ccccc2c1 (stereo not shown) [Compound 1]
[1]; [11]
  IC50: > 62.5 µM
[2]; [12]
  IC50: > 62.5 µM
